{"source": "patent US20050107306A1", "about": "“Treatment of respiratory disease associated with matrix metalloproteases by inhalation of synthetic matrix metalloprotease inhibitors” (priority 2003, published 2005)", "key": {"MMP-1 (collagenase-1)": {"biological_target": "T1, MMP-1 (collagenase-1) (Homo sapiens, UniProt P03956)", "T1 sequence (P03956 100-469)": "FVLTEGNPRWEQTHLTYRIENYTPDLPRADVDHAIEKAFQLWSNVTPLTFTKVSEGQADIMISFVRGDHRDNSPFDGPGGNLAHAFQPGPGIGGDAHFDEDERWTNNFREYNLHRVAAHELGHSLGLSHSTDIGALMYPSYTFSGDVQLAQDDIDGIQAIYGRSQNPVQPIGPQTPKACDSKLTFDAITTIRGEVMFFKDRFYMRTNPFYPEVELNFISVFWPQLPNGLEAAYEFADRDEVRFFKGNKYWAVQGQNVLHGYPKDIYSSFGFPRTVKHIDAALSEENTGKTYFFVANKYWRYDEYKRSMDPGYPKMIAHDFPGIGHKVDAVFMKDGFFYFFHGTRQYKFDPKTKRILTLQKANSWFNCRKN", "conditions": "read-out: MMP-1 (collagenase-1) Kl; cited from earlier work"}, "MMP-3 (stromelysin)": {"biological_target": "MMP-3 (stromelysin) (Homo sapiens, UniProt P08254)", "sequence (P08254 100-477, species assumed)": "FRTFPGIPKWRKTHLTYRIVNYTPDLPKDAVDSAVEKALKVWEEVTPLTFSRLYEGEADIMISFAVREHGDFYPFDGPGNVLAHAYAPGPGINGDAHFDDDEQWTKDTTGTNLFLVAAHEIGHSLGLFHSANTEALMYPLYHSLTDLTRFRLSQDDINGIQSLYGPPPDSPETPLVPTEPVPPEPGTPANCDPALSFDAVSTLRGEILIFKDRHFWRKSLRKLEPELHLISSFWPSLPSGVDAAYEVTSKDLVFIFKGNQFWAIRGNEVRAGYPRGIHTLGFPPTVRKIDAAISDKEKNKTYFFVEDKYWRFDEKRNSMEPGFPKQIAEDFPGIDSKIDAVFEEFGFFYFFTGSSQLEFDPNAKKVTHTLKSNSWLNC", "conditions": "read-out: MMP-3 (stromelysin) Kl; cited from earlier work"}, "MMP-7": {"biological_target": "T2, MMP-7 (Homo sapiens, UniProt P09237)", "T2 sequence (P09237 95-267)": "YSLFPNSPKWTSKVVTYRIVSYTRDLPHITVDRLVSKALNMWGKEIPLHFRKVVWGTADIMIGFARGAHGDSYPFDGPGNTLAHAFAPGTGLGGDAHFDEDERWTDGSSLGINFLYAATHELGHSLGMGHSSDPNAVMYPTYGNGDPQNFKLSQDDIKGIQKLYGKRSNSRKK", "conditions": "read-out: MMP-7 Kl; cited from earlier work"}, "MMP-2 (gelatinase A)": {"biological_target": "T3, MMP-2 (gelatinase A) (Homo sapiens, UniProt P08253)", "T3 sequence (P08253 110-660)": "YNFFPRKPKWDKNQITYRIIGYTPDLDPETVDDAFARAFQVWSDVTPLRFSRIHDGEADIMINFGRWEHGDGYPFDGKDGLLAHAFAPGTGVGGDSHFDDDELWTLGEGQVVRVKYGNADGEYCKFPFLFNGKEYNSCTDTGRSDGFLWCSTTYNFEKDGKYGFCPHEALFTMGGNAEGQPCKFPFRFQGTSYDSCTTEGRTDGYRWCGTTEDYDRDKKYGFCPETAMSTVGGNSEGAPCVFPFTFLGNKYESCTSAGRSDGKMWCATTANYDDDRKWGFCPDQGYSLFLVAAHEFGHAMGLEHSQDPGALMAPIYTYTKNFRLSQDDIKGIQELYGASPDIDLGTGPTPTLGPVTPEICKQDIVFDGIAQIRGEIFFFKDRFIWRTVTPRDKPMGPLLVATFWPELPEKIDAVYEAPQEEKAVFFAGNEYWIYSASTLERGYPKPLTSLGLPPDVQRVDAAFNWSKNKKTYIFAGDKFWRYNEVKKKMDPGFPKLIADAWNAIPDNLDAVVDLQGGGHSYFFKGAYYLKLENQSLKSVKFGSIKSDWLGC", "conditions": "read-out: MMP-2 (gelatinase A) Kl; cited from earlier work"}, "MMP-9 (gelatinase B)": {"biological_target": "MMP-9 (gelatinase B) (Homo sapiens, UniProt P14780)", "sequence (P14780 94-707, species assumed)": "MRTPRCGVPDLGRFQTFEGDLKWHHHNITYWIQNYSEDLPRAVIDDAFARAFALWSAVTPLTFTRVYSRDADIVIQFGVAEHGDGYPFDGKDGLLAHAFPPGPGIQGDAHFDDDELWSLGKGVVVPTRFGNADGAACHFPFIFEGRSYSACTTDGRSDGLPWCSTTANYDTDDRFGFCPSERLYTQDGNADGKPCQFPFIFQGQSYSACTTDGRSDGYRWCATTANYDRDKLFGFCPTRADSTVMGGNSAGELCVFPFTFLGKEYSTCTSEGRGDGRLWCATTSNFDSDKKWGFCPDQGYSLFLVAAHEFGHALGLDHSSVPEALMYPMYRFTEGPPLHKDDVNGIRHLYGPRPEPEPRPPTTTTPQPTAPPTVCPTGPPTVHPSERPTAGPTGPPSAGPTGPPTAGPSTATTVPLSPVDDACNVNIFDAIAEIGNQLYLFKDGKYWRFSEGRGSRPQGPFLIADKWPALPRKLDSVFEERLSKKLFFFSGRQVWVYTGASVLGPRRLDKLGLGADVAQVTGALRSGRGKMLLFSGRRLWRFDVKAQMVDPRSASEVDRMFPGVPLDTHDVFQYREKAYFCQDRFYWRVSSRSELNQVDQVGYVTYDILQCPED", "conditions": "read-out: MMP-9 (gelatinase B) Kl; cited from earlier work"}, "[1]": {"assay": "Solubility in liquid formulation", "assay_type": "physicochemical", "conditions": "depending on the formulation, read-out: soluble in liquid formulation at levels up to"}, "[2]": {"tested_on": "murine model of cigarette smoke-related emphysema", "assay": "Murine model of cigarette smoke-related emphysema: lung morphometry, mean linear intercept (Lm)", "assay_type": "in vivo", "conditions": "smoking mice", "protocol": "Five groups of animals were studied. […] Group 1 animals (32 animals) were control non-smoking animals. Group 2 animals (32 animals) were administered aerosolized PBS (10 ml/5 animals) followed by cigarette smoke. […] All adult mice (12 weeks of age at initiation) were exposed to two cigarettes per day, 6 days/wk for up to 6 months. Within each treatment group there were 3 timepoints for analysis: 1 week, 3 months, and 6 months. […] Delivery proceeded until the nebulizer ran dry (about 30 minutes). […] All were prepared in sterile saline. Vehicle control animals received sterile saline only. In each animal, the right lung was removed and used for fixation/inflation and paraffin embedding to study morphometry, to determine mean linear intercept (Lm), which is the distance between the walls of alveoli, and which increases as proteases (e.g., elastase, metalloproteases) break down pulmonary structure."}, "[3]": {"tested_on": "murine model of cigarette smoke-related emphysema", "assay": "Murine model of cigarette smoke-related emphysema: inflammatory cells in bronchoalveolar lavage (BAL)", "assay_type": "in vivo", "conditions": "smoking mice", "protocol": "Five groups of animals were studied. […] Group 1 animals (32 animals) were control non-smoking animals. Group 2 animals (32 animals) were administered aerosolized PBS (10 ml/5 animals) followed by cigarette smoke. […] All adult mice (12 weeks of age at initiation) were exposed to two cigarettes per day, 6 days/wk for up to 6 months.\nWithin each treatment group there were 3 timepoints for analysis: 1 week, 3 months, and 6 months. After one week, 3 months, and 6 months on study, 10 animals, 10 animals, and 12 animals respectively, from each group were sacrificed and analytical work on lungs and lung samples was performed (see below).\n10 mL of sterile saline or drug was placed in the nebulizer and delivered to each group of five animals. Delivery proceeded until the nebulizer ran dry (about 30 minutes).\nAll were prepared in sterile saline. Vehicle control animals received sterile saline only.\nThe left lung was subjected to bronchoalveolar lavage (BAL) to determine levels of the inflammatory cell types macrophages and neutrophils, which were counted by morphology. BAL samples were collected using 0.5 mL rinses of the left lung."}, "[4]": {"tested_on": "MMP activity (assay designed primarily to detect MMP-9 activity)", "assay": "MMP activity of BAL samples from smoking mice treated with nebulized ilomastat", "assay_type": "in vivo", "conditions": "for MMP Activity of BAL sample (mAU/min): drug treated (ilomastat 100 ug/mL nebulized daily), individual mouse samples", "procedure": "The 2-week study was a repeat of the 1-week study but used 10 animals/group.\nAt the end of each study, BAL samples were obtained from the lungs of each animal using established procedures and each sample was tested for MMP activity using an assay designed primarily to detect MMP-9 activity.\n• 1. 150 μL of MMP Reagent Mix was added to each well. The reagent mix consisted of the appropriate dilutions of previously prepared stock solutions in order to yield the following final concentrations in 200 μL final volume/well: • HEPES stock (50 mM final) • CaCl2 stock (10 mM final) • Ellmans Reagent stock (1.25 mM final) • Substrate (Bachem #H7145) stock (475 μM final) • Q.S. with dH2O • 2. Microtiter plate was placed in the 30° C. incubator for 15 min. • 3. 50 μL/well of each BAL sample was added into the appropriate wells • 4. 50 μL/well of vehicle control buffer was added to blank well. • 5. 48 μL/well of vehicle control buffer and 2 μL of MMP-9 (20 ng, CalBiochem #444231) was added to the control well. • 6. Plate was placed in VersaMax Microtiter Plate Reader which was pre-equilibrated to 30° C. • 7. Abs410 was read every 5-6 min for 3 hrs Results and Conclusions: […]"}, "sheep model for asthma": {"tested_on": "sheep model for asthma", "assay": "Sheep model for asthma: carbachol challenge, DRC/PC 400%", "assay_type": "in vivo", "conditions": "30 μg dose, 24 hours after administration", "procedure": "Phosphate buffered saline (PBS) (control) • 2. […] Results:\nDRC/PC %400 refers to the amount of carbochol required to induce a 400% change in airway hyperresponsiveness. The amount required is measured as carbachol breath units (BU); the aerosol concentration of carbachol is fixed and the animal continues to inhale until the appropriate response in obtained. Thus, a higher value indicates a protective effect against an asthmatic reaction."}, "human MMP-9": {"tested_on": "human MMP-9", "assay": "MMP-9 fluorescent activity assay in induced sputum samples", "assay_type": "biochemical", "procedure": "Induced sputum (IS) samples were collected from 22 healthy smokers (HS) and 19 patients with clinical evidence of chronic obstructive pulmonary disease (COPD) (Inclusion criteria: FER<0.7 and FEV1 % Predicted 30-80%). The IS was processed using dithiothreitol as previously described by Pavord et al. (1997) Thorax 52, 498-501. 15 randomly selected IS were used for inhibitor studies (COPD n=7; HS n=8).\nMMP-9 activity in IS was measured using a commercially available human MMP-9 fluorescent activity assay (Fluorokine® E, R&D Systems, Europe, UK). Following binding of MMP-9 (92, 82, 62 kDa forms) to an immobilized monoclonal antibody, a fluorogenic substrate linked to a quencher molecule was added. Any active MMP-9 cleaved the peptide linkers between the fluorophore and the quencher molecule allowing measurement of the fluorescence using a fluorimeter (Spectrafluor Plus, Tecan, UK). For inhibitor studies, the IS samples were incubated for 30 minutes at room temperature with the inhibitors prior to addition of the synthetic substrate."}, "[5]": {"biological_target": "MMP-12 (macrophage metalloelastase, ME) (Homo sapiens, UniProt P39900)", "sequence (P39900 106-470, species assumed)": "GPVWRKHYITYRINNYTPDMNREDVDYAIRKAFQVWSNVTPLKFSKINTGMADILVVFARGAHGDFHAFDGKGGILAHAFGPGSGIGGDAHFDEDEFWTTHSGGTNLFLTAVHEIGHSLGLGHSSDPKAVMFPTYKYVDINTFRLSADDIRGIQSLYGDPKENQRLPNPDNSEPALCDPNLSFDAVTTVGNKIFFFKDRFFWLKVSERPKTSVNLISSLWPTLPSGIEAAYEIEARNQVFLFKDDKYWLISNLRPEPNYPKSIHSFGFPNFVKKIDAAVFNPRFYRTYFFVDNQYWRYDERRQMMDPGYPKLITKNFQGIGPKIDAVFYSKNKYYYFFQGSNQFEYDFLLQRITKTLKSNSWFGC", "conditions": "read-out: MMP-12 (macrophage metalloelastase, ME) Kl; cited from earlier work"}}}
{"smiles": "O=C(NO)C1(CS(=O)(=O)c2ccc(Oc3ccc(Cl)cc3)cc2)CCOCC1", "note": "[RS-130,830]", "values": [{"measurement": "Ki", "setting": "MMP-1 (collagenase-1)", "result": 590, "unit": "nM"}, {"measurement": "Ki", "setting": "MMP-3 (stromelysin)", "result": 9, "unit": "nM"}, {"measurement": "Ki", "setting": "MMP-7", "result": 1200, "unit": "nM"}]}
{"smiles": "CN1C(=O)N(C[C@@H](C(=O)NO)[C@@H](CC2CCCC2)C(=O)N2CCCCC2)C(=O)C1(C)C", "note": "[Ro 32-3555]", "values": [{"measurement": "Ki", "setting": "MMP-2 (gelatinase A)", "result": 154, "unit": "nM"}, {"measurement": "Ki", "setting": "MMP-9 (gelatinase B)", "result": 59, "unit": "nM"}]}
{"smiles": "CNC(=O)[C@H](Cc1c[nH]c2ccccc12)NC(=O)[C@@H](CC(=O)NO)CC(C)C", "note": "[ilomastat, N-[2(R)-2(hydroxyamidocarbonylmethyl)-4-methylpentanoyl]-L-tryptophan methylamide]", "values": [{"measurement": "solubility", "setting": "[1]", "result": "≤ 15", "unit": "mg/mL"}, {"measurement": "% protection (Lm)", "setting": "[2]; ilomastat dose 1 (100 ug/mL)", "result": 83, "unit": "%"}, {"measurement": "Lm vs. non-smokers (%)", "setting": "[2]; ilomastat dose 1 (100 ug/mL)", "result": 2.6, "unit": "%"}, {"measurement": "% protection (Lm)", "setting": "[2]; ilomastat dose 2 (50 ug/ml)", "result": 96, "unit": "%"}, {"measurement": "Lm vs. non-smokers (%)", "setting": "[2]; ilomastat dose 2 (50 ug/ml)", "result": 0.6, "unit": "%"}, {"measurement": "% protection (Lm)", "setting": "[2]; ilomastat dose 3 (10 ug/ml)", "result": 42, "unit": "%"}, {"measurement": "Lm vs. non-smokers (%)", "setting": "[2]; ilomastat dose 3 (10 ug/ml)", "result": 8.7, "unit": "%"}, {"measurement": "Macrophages, cells per ml of BAL fluid", "setting": "[3]; ilomastat dose 1 (100 ug/mL)", "result": 1000, "unit": "cells per ml"}, {"measurement": "Neutrophils, cells per ml of BAL fluid", "setting": "[3]; ilomastat dose 1 (100 ug/mL)", "result": 100, "unit": "cells per ml"}, {"measurement": "Macrophages, cells per ml of BAL fluid", "setting": "[3]; ilomastat dose 2 (50 ug/ml)", "result": 1500, "unit": "cells per ml"}, {"measurement": "Neutrophils, cells per ml of BAL fluid", "setting": "[3]; ilomastat dose 2 (50 ug/ml)", "result": 220, "unit": "cells per ml"}, {"measurement": "Macrophages, cells per ml of BAL fluid", "setting": "[3]; ilomastat dose 3 (10 ug/ml)", "result": 2500, "unit": "cells per ml"}, {"measurement": "Neutrophils, cells per ml of BAL fluid", "setting": "[3]; ilomastat dose 3 (10 ug/ml)", "result": 50, "unit": "cells per ml"}, {"measurement": "MMP activity of BAL samples, in words", "setting": "[4]; 1-week study, all five treated mouse samples", "result": "no detectable MMP activity"}, {"measurement": "MMP activity of BAL samples, in words", "setting": "[4]; 2-week study, all ten treated mouse samples", "result": "no detectable MMP activity"}, {"measurement": "MMP Activity of BAL sample (mAU/min)", "setting": "[4]; 2 week study", "result": 0, "unit": "mAU/min"}, {"measurement": "MMP Activity of BAL sample (mAU/min)", "setting": "[4]; Pilot study (1 week)", "result": 0, "unit": "mAU/min"}, {"measurement": "effect against asthmatic reaction, in words", "setting": "sheep model for asthma", "result": "clear protective effect"}, {"measurement": "inhibitory effect on MMP-9 activity in induced sputum", "setting": "human MMP-9; 30 uM, IS from COPD patients, p=0.249 (ns)", "result": "9.2+/−7.2%"}, {"measurement": "inhibitory effect on MMP-9 activity in induced sputum", "setting": "human MMP-9; 30 uM, IS from healthy smokers (HS), p=0.015", "result": "22.6+/−6.7%"}, {"measurement": "inhibitory effect on MMP-9 activity in induced sputum", "setting": "human MMP-9; 100 uM, IS from COPD patients, p=0.004", "result": "42.5+/−9.3%"}, {"measurement": "inhibitory effect on MMP-9 activity in induced sputum", "setting": "human MMP-9; 100 uM, IS from healthy smokers (HS), p=0.008", "result": "39.4+/−6.3%"}, {"measurement": "Ki", "setting": "MMP-3 (stromelysin)", "result": "26 to 27", "unit": "nM"}, {"measurement": "Ki", "setting": "[5]", "result": "0.2 to 0.4", "unit": "nM"}]}
